In patent publication US12024546B2, “Peptides and anti-cancer compositions including thereof” (GWANGJU INSTITUTE OF SCIENCE AND TECHNOLOGY, priority 2022, dated 2024):
Each block holds one molecule with its values, some of them ahead of it.

What was measured:
FAK = target: T1, FAK (Homo sapiens, UniProt Q05397); test: Immunoblot of FAK activation status (p-FAK); assay type: cell-based
T1 construct: endogenous in cells; host or cells: Human CRC cells
Protocol: (§1) FIGS. 16A-16G illustrate functional involvement of fibronectin/integrin/FAK axis in dysadherin-mediated protumor activity. (FIG. 16A) The number of viable cells was measured with an automated cell counter (Countess II, ThermoFisher Scientific, Waltham, MA, USA) at the indicated time points (n=3/group) in HCT116 cells overexpressing wildtype (full length) or mutant dysadherin. EV-transfected cells were used as controls. […] (FIG. 16B) To determine the effect of fibronectin and FAK signaling on cancer cell growth, dysadherin-OE or control cells were transfected with control siRNA (siCTRL) or siRNAs targeting fibronectin (siFN1). At 24 h after transfection, cells were detached, reseeded, and incubated for 12 h for cell attachment. […] The relative cell numbers were determined by MTT assays (n=3/group). […] The black dotted line indicates initial wound area, and the blue line indicates the cell boundaries determined after a 48-h incubation in serum-free media. […] After a 24-h incubation, the cells that invaded through to the bottom of the membrane were fixed, stained with crystal violet, and counted under a phase-contrast microscope (n=3/group). […]
Tissues or cells were homogenized in RIPA buffer for 20 min on ice. Protein concentrations were determined based on bicinchoninic acid (BCA) assay using the BCA Protein Assay kit (Thermo Fisher Scientific, Waltham, MA, USA). […]

HCT116 cells [1] = test: Clonogenic assay (survival potential), HCT116 cells overexpressing dysadherin; assay type: cell-based, human; conditions: VS-4718 3 μmol/L for 24 h, then clonogenic assay
Protocol: as §1
A clonogenic assay was performed as cells were seeded in 12-well plates (200 cells/well) and cultured for 14 days. The numbers of colonies greater than 50 μm in size were counted after staining with crystal violet (n=3/group).

HCT116 cells [2] = test: Wound healing assay (migration), HCT116 cells overexpressing dysadherin; assay type: cell-based, human; conditions: VS-4718 1 μM, 48-h incubation in serum-free media
Protocol: as §1
Cells were seeded in culture inserts (Ibidi, GmbH, Martinsried, Germany). […] The wound area at time zero or the endpoint was measured using Image-Pro Premier 9.2. The area of wound closure was calculated as a percentage of the initial wound area. […]

HCT116 cells [3] = test: Boyden chamber assay (invasion), HCT116 cells overexpressing dysadherin; assay type: cell-based, human; conditions: FAK inhibitor 3 μmol/L, 24-h incubation, serum-free media
Protocol: as §1, with “(siFN1).” for “(siFN1). At 24 h after transfection, cells were detached, reseeded, and incubated for 12 h for cell attachment.”
The Transwell system (8 μm pore size, Corning) was employed for migration and invasion assays. […] After incubation for 24 h at 37° C., the cells that migrated or invaded the Matrigel through to the bottom of the insert membrane were fixed, stained with crystal violet, and counted under a phase-contrast microscope (Carl Zeiss, biological triplicates).

wild-type HCT116 cells = test: Cell growth by MTT assay, wild-type HCT116 cells; assay type: cell-based, human; conditions: VS-4718 3 μM, 36 h
Protocol: (§2) FIGS. 16A-16G illustrate functional involvement of fibronectin/integrin/FAK axis in dysadherin-mediated protumor activity. (FIG. 16A) The number of viable cells was measured with an automated cell counter (Countess II, ThermoFisher Scientific, Waltham, MA, USA) at the indicated time points (n=3/group) in HCT116 cells overexpressing wildtype (full length) or mutant dysadherin. EV-transfected cells were used as controls. […] (FIG. 16B) To determine the effect of fibronectin and FAK signaling on cancer cell growth, dysadherin-OE or control cells were transfected with control siRNA (siCTRL) or siRNAs targeting fibronectin (siFN1). At 24 h after transfection, cells were detached, reseeded, and incubated for 12 h for cell attachment. Then cells were incubated for 36 h with or without FAK inhibitor treatment (VS-4718, 3 μM). The relative cell numbers were determined by MTT assays (n=3/group). […] Cells were seeded on fibronectin-coated culture plates with or without VS-4718, at 1 or 3 μM. […] The black dotted line indicates initial wound area, and the blue line indicates the cell boundaries determined after a 48-h incubation in serum-free media. […] After a 24-h incubation, the cells that invaded through to the bottom of the membrane were fixed, stained with crystal violet, and counted under a phase-contrast microscope (n=3/group). […]

[4] = system: dysadherin-OE HCT116 cells; test: Cell growth by MTT assay, dysadherin-OE HCT116 cells; assay type: cell-based, human; conditions: VS-4718 3 μM, 36 h
Protocol: as §2

[5] = system: dysadherin KO SW480 cells; test: Cell viability by MTT assay, dysadherin KO SW480 cells; assay type: cell-based, human; conditions: MTT assay at 48 hours after peptide treatment
Protocol: (§3) FIGS. 13C-13D illustrate cell viability were measured by an MTT assay at 48 hours after the treatment of annotated peptide in SW480 cells with and without KO of dysadherin.
A dysadherin-KO (FXYD5^−/−) SW480 cell line was generated by Transomic Technologies (Huntsville, AL, USA). Specific gRNA targeting different regions of the human FXYD5 gene was designed and cloned into the pCLIPAll (EFS-Puro) expression vector. SW480 cells were infected with lentiviral particles and selected with puromycin for 1 week. Dilution cloning was performed to obtain different monoclonal cell populations. […] For establishment of the dysadherin-OE cell line, HCT116 cells were transfected with dysadherin expression vector (pcDNA-L3HSV) and selected with G418 for 1 week. Dilution cloning was performed and OE of the dysadherin gene was confirmed by RT-qPCR and immunoblot analysis. […]
(§4) Cells were seeded in 6-well or 96-well plates and incubated for various time points. The numbers of viable cells were measured with an automated cell counter (Countess II, ThermoFisher Scientific, Waltham, MA, USA) or measured by staining with thiazolyl blue tetrazolium bromide (MTT, Sigma-Aldrich, St. Louis, MO, USA), and the absorbance was measured using a microplate spectrophotometer (Bio-Tek Instruments Inc., Winooski, VT, USA).

SW480 cells = test: Cell viability by MTT assay, SW480 cells; assay type: cell-based, human; conditions: MTT assay at 48 hours after peptide treatment
Protocol: as §3, §4

fibronectin [6] = test: Pull-down assay of His-tagged synthesized peptides with purified fibronectin; assay type: binding; conditions: His-tagged peptide 20 μg, purified fibronectin 0.5 μg, Ni-NTA agarose beads, Coomassie staining
Source text: FIG. 13B illustrates pull-down assay using purified fibronectin and purified His-tagged synthesized peptides to determine the specific sequence with fibronectin-binding activity.
The coding sequences of wild-type or mutant forms of dysadherin were synthesized and cloned into pET151/DTOPO vector by Thermo Fisher Scientific. OE of His-tagged dysadherin was achieved using E. coli grown in Luria-Bertani (LB) broth medium, supplemented with ampicillin. Isopropyl β-D-1-thiogalactopyranoside (IPTG, 0.5 mM) was added into the LB broth medium to induce the expression of the protein of interest, and the mixture was incubated for 5 h at 37° C. The cells were then lysed using RIPA buffer and purified using a Ni-NTA column (R90101, Thermo Fisher Scientific). The concentrated purified protein was measured using the BCA Protein Assay kit (Thermo Fisher Scientific). […] Presence of His-tagged dysadherin and fibronectin proteins were determined by immunoblot analysis using anti-His rabbit monoclonal antibody (#12698, Cell Signaling Technology) and anti-fibronectin rabbit polyclonal antibody (ab2413, Abcam, Cambridge, MA, USA). […] The purity of each peptide was determined to be over 95% by LC-MS. […] The presence of His-tagged dysadherin, dysadherin peptides, and fibronectin was determined by staining with Coomassie Brilliant Blue.

fibronectin [7] = target: T2, fibronectin (Homo sapiens, UniProt P02751); test: Pull-down assay of purified His-tagged dysadherin proteins with purified fibronectin protein; assay type: binding; conditions: purified His-tagged dysadherin proteins 1 μg, purified fibronectin 0.5 μg, anti-His antibody, immunoblot
T2 construct: purchased Sigma Aldrich
T2 sequence (P02751 32-2477, species assumed): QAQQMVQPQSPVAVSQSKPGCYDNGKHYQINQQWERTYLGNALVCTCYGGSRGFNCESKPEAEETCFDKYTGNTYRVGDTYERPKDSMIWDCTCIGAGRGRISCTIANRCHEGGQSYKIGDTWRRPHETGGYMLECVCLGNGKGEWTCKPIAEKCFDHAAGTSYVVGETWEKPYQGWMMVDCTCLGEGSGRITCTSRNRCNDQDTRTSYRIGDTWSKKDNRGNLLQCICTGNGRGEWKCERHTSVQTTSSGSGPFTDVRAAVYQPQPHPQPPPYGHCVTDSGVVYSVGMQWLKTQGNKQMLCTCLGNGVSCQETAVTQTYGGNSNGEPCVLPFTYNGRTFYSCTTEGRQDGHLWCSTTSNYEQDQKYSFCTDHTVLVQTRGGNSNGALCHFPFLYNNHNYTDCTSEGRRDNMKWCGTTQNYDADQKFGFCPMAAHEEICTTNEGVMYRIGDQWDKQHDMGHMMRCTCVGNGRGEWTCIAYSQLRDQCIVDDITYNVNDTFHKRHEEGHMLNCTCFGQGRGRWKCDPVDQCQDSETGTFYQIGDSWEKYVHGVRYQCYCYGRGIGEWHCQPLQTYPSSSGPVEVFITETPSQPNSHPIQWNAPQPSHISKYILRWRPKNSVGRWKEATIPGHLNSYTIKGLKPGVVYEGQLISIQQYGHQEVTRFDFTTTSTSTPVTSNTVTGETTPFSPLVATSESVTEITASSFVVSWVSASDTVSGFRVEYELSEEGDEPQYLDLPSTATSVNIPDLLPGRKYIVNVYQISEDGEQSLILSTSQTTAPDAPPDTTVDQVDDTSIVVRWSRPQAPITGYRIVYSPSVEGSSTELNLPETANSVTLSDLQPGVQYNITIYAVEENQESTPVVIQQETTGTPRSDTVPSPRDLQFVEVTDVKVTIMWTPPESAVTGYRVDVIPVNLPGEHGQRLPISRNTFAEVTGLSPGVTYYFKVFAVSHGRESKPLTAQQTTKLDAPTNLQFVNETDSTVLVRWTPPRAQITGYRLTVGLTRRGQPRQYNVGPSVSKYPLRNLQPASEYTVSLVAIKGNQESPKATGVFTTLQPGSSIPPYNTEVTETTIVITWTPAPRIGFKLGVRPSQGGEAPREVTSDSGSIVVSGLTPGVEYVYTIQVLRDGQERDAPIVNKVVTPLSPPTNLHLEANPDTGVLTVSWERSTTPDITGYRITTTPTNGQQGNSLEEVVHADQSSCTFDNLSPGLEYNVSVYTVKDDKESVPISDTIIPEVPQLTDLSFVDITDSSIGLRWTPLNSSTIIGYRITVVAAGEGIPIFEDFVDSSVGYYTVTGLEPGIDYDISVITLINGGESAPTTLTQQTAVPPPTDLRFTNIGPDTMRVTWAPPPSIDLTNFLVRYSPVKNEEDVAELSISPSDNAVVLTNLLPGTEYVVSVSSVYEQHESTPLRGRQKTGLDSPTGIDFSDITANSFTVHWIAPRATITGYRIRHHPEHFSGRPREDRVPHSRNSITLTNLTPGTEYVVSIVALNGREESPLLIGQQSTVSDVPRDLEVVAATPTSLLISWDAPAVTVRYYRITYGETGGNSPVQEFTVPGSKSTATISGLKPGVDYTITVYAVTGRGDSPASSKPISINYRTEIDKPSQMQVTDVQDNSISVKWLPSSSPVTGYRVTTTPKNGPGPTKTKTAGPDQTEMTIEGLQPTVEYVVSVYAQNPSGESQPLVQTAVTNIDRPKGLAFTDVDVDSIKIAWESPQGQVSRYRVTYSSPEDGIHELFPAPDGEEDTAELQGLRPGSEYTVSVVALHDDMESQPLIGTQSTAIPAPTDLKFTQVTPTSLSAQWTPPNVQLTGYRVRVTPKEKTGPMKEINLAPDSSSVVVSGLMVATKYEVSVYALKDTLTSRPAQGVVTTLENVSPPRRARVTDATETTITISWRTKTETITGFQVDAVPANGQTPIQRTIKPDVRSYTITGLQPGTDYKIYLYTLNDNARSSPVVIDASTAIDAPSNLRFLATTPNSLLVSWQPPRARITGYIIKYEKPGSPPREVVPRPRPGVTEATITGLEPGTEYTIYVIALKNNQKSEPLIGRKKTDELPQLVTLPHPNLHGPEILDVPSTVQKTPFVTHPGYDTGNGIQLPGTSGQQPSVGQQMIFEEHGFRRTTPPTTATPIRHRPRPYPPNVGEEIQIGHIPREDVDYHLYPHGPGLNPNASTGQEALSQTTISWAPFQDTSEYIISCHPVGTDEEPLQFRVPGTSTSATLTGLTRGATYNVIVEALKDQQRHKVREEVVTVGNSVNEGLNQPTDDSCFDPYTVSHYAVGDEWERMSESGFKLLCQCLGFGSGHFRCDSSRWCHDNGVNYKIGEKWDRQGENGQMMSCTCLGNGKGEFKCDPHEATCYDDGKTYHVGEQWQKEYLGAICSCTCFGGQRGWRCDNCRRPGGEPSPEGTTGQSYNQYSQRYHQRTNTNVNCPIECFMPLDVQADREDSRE
Source text: FIGS. […] illustrate the extracellular domain of dysadherin directly binds fibronectin. (FIG. 12A) Co-IP with anti-dysadherin antibody (M53) and subsequent immunoblot analyses validate the binding of dysadherin to endogenous fibronectin in CRC cells. (FIG. 12B) Co-IP with M53 and subsequent immunoblot analyses confirm that the quantity of dysadherin-bound fibronectin is decreased by dysadherin KO but increased by dysadherin OE. (FIG. 12C) Whole-protein lysates and membrane fractions were extracted from cells at the indicated time points. Culture media were collected and applied to dot blot assays to compare the quantities of secreted fibronectin. […]
The coding sequences of wild-type or mutant forms of dysadherin were synthesized and cloned into pET151/DTOPO vector by Thermo Fisher Scientific. […] The concentrated purified protein was measured using the BCA Protein Assay kit (Thermo Fisher Scientific). […] Presence of His-tagged dysadherin and fibronectin proteins were determined by immunoblot analysis using anti-His rabbit monoclonal antibody (#12698, Cell Signaling Technology) and anti-fibronectin rabbit polyclonal antibody (ab2413, Abcam, Cambridge, MA, USA). […] The purity of each peptide was determined to be over 95% by LC-MS. […] The presence of His-tagged dysadherin, dysadherin peptides, and fibronectin was determined by staining with Coomassie Brilliant Blue.

T1 sequence (Q05397 whole entry): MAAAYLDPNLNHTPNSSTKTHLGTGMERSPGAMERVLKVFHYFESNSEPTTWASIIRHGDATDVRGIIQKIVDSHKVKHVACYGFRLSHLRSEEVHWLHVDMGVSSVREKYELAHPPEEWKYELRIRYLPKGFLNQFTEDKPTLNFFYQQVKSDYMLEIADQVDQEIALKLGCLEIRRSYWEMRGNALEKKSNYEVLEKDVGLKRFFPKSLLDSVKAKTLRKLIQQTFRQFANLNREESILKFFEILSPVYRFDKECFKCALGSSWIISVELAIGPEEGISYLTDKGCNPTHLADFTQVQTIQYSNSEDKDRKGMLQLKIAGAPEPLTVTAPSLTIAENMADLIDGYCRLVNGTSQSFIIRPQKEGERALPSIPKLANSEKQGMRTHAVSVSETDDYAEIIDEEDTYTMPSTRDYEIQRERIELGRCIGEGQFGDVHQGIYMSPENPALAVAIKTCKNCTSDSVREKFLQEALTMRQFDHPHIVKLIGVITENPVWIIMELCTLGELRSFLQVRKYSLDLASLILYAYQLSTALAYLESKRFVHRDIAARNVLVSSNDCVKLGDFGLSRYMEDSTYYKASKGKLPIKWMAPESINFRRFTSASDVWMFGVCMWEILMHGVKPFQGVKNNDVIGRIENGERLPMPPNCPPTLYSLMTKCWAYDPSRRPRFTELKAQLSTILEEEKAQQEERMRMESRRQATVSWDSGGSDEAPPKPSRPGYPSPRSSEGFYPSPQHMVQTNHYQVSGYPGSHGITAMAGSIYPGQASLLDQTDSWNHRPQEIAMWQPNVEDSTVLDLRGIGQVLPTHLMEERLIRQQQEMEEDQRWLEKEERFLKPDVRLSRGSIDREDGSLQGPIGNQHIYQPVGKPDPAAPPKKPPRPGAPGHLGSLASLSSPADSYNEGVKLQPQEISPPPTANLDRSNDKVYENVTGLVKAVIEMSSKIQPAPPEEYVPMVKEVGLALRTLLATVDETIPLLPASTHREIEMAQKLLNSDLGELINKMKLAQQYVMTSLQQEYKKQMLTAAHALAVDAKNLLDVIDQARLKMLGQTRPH

fibronectin-induced FAK activation (FAK; cells on fibronectin-coated plates, VS-4718 at 1 or 3 μM, 4 h): inhibitory effects
basal p-FAK levels (FAK; treatment with VS-4718, FIG. 16C): diminished basal p-FAK levels
Molecule: CNC(=O)c1ccccc1Nc1cc(Nc2ccc(N3CCOCC3)cc2OC)ncc1C(F)(F)F [VS-4718]
dysadherin-induced increase in CRC survival (HCT116 cells [1]): attenuated
dysadherin-induced increase in CRC migration (HCT116 cells [2]): attenuated
dysadherin-induced increase in CRC invasion (HCT116 cells [3]): attenuated
growth of wild-type HCT116 cells (wild-type HCT116 cells): attenuated the growth of wild-type HCT116 cells
dysadherin-induced CRC growth [4]: diminished dysadherin-induced CRC growth

fibronectin-binding activity (fibronectin [6]): displayed fibronectin-binding activity
Molecule: KAAHPTDDTTTLSERPSPST (listed as Homo sapiens) [N #4]
effect against dysadherin KO SW480 cells [5]: limited effect
cytotoxicity against SW480 cells (SW480 cells): selective cytotoxicity

fibronectin-binding activity (fibronectin [6]): displayed fibronectin-binding activity
Molecule: PADETPQPQTQTQQLEGTDGP (listed as Homo sapiens) [N #3]
effect against dysadherin KO SW480 cells [5]: limited effect
cytotoxicity against SW480 cells (SW480 cells): selective cytotoxicity

binding to fibronectin (fibronectin [7]): direct binding
B1: dysadherin: purified recombinant His-tagged dysadherin protein, full-length (wild-type), from E. coli (protein)
chain: QTLKDTTSSSSADSTIMDIQVPTRAPDAVYTELQPTSPTPTWPADETPQPQTQTQQLEGTDGPLVTDPETHKSTKAAHPTDDTTTLSERPSPSTDVQTDPQTLKPSGFHEDDPFFYDEHTLRKRGLLVAAVLFITGIIILTSGKCRQLSRLCRNRCR
